Assay results as given in patent US20110200554A1, “THERAPEUTIC AGENT FOR HEPATITIS C” (priority 2008, published 2011).

Experiments:
HCV RNA (virus level) = experiment: Clinical test in patients with intractable hepatitis C, serum HCV RNA by real-time PCR (TaqMan); assay type: in vivo, human; details: oral 1500 mg/day for 4 weeks
Method: Serum HCV RNA level (log IU/ml) was measured every week from before the administration to the end of the therapy by the real-time detection PCR method using TaqMan (trade name) probe.

[1] = system: genome-length HCV RNA replication in OR6 cells; experiment: Genome-length HCV replication assay in OR6 cells (Renilla luciferase reporter); assay type: cell-based, Hepatitis C virus (HCV); details: luciferase activity
From the text: Briefly, the cells described in Patent Literature 1 used for the screening were as follows: That is, the cells were those obtained by introducing, into Oc cells (FERM P-20517) originated from a human hepatocarcinoma cell line HuH-7, a plasmid containing full length of HCV genome, luciferase gene as a reporter gene and neomycin-resistant gene (neomycin phosphotransferase gene) as a selection marker gene. More specifically, the cells (OR6 cells) were the Oc cells (FERM P-20517) originated from a human hepatocarcinoma cell line HuH-7, into which a plasmid having an RNA containing, from the 5′-end, internal ribosome entry site (IRES) sequence of HCV, luciferase gene, neomycin phosphotransferase gene, IRES sequence originated from encephalomyocarditis virus (EMCV), HCV open reading frame sequence and HCV 3′ untranslated sequence. After culturing the OR6 cells in a culture medium containing a test compound whose anti-viral activity against HCV (that is, therapeutic effect against hepatitis C) is to be examined, the luciferase activity of the cells is measured. […] Therefore, the lower the luciferase activity measured, the higher the anti-HCV activity. In Patent Literature 1, it was experimentally confirmed that correlation between the luciferase activity measured and the amount of HCV RNA is very high, so that it has been confirmed that this system has a high reliability. […]

[2] = system: Renilla luciferase driven by EMCV IRES in OR6c cells; experiment: Control transfection: EMCV IRES-driven Renilla luciferase plasmid pEMCV-RL in cured OR6c cells; assay type: cell-based, human; details: cured OR6c cells transfected with pEMCV-RL, HU added 24 h after transfection, 72 h culture
Method: In accordance with Patent Literature 1, a plasmid encoding Renilla luciferase driven by the internal ribosome entry site (IRES) of encephalomyocarditis virus (EMCV) was transfected into OR6c cells which were OR6 cells cured by IFN, with FuGENE6 reagent (produced by Roche Diagnostics), and 24 hours after transfection, the cells were treated with various concentrations of HU and cultured for 72 hours.

OR6 cells = experiment: Cell viability, viable cell count after trypan blue staining; assay type: cell-based, human; details: 72 h, HU at each concentration up to 100 μmol/L
Method: In order to examine the cytotoxic effects of HU on OR6 cells, the cells were seeded onto dishes of diameter 95 mm at a density of 400,000 cells per dish, and cultured for 72 hours after adding HU to a concentration of 0, 50, 100, and 150 μmol/L, respectively. The number of viable cells was then counted by a hematocytometer after staining with trypan blue dye.

[3] = serum HCV RNA (log IU/ml), 12 patients

| Substance | patients with decrease in the virus level (HCV RNA) (HCV RNA (virus level); 9 out of 12 patients, intractable hepatitis C, serogroup 1, high virus level) [%] | decrease in the virus level, average (HCV RNA (virus level); [3]) [Log] | decrease in the virus level, maximum (HCV RNA (virus level); [3]) [Log] | IC50 ([1]; 72-h treatment, HU up to 150 μmol/L, read-out: 50% replication inhibition concentration) [µM] | inhibition of Renilla fluorescence (control plasmid) [2] | number of viable cells compared to untreated cells (OR6 cells) | 50% inhibition concentration ([1]; 72 h treatment) [IU/mL] |
| --- | --- | --- | --- | --- | --- | --- | --- |
| hydroxyurea [HU] | 75 | 0.22 | 0.37 | 60 | did not inhibit | no significant difference |  |
| interferon α |  |  |  |  |  |  | 1.2 |
